Experimental data published in patent US8343696B2, “Colored curable composition, fluorine-containing dipyrromethene compound and tautomer thereof, and fluorine-containing dipyrromethene metal complex and tautomer thereof, and color filter using the same and method for producing the color filter” (FUJIFILM Corporation, priority 2008, dated 2013).

Legend:
Type in all cases: physicochemical
[1] = Absorption spectrum in ethyl acetate solution (spectrophotometer UV-2400PC)
Description: In consideration of film thickness, the molar absorption coefficient of the specific metal complex compounds-1, -2, -3 and -4 of the invention is preferably as high as possible, and 60,000 or higher is preferable. The maximum absorption wavelength (λmax) thereof is preferably from 520 nm to 580 nm, and more preferably from 530 nm to 570 nm, in order to improve color purity. The maximum absorption wavelength and the molar absorption coefficient are determined by using a spectrophotometer UV-2400PC (manufactured by Shimadzu Corporation).
The molar absorption coefficient (ε) of each of the obtained compounds was measured in an ethyl acetate solution using a spectrophotometer (trade name: UV-2400PC; manufactured by Shimadzu Corporation). The absorbance (Abs) at 450 nm was evaluated by normalizing the absorbance at a maximum absorption wavelength (λmax) to 1.0. […] The measurement results of the absorbance (Abs value), maximum absorption wavelength (λmax), and molar absorption coefficient (ε) are shown in Table 1.
By the method similar to the reaction scheme in Synthesis Example 1 above, the exemplary compounds (dipyrromethene metal complex compounds or tautomers thereof) shown in Table 1 were synthesized. The identification of the compounds and the measurement of the maximum absorption wavelength (λmax) and the molar absorption coefficient (ε) of the compounds were performed similarly to Synthesis Example 1 above.

[2] = Light-fastness of coating film (color difference ΔEab before and after xenon lamp irradiation); conditions: xenon lamp 20,000 luxes for 10 hours (200,000 lux·h)
Description: A glass substrate having undercoat layer formed by applying the colored resin composition obtained in section 3 above was irradiated with a xenon lamp at an intensity of 20,000 luxes for 10 hours (equivalent to 200,000 lux·h), and the color difference ΔEab between before and after the irradiation was determined. The light-fastness was evaluated according to the following criteria. A smaller ΔEab value indicates better light-fastness.
(§1) A: ΔEab value was less than 6
(§2) B: ΔEab value was from 6 to 10
(§3) C: ΔEab value was more than 10

[3] = Transmittance at 450 nm of the color filter; conditions: negative-working colored resist, 1.0 μm film; transmittance at λmax normalized to 2%
Description: The colored resist solution obtained in section 3 above was applied to an undercoat layer side of the glass substrate having an undercoat layer obtained in section 2 above by a spin coater such that a film thickness was 1.0 μm. Subsequently, the film was pre-baked at 100° C. for 120 sec, whereby a monochromatic color filter was obtained.
The transmission spectrum of the color filter obtained above was measured, and the transmittance at 450 nm was evaluated according to the following criteria. The transmittance of the color filter at 450 nm was evaluated by correcting (normalizing) the transmittance at the maximum absorption wavelength of the colorant included in the color filter to 2%. A larger transmittance indicates greater transmission of blue light, which indicates favorable magenta or violet color that can be used in a blue filter.
A: Transmittance at 450 nm was 90% or more
B: Transmittance at 450 nm was 80% or more but not more than 90%
C: Transmittance at 450 nm was not more than 80%

[4] = Heat resistance of coating film (color difference ΔEab before and after heating); conditions: 100° C. for 1 hour on hot plate
Description: A glass substrate having undercoat layer formed by applying the colored resin composition obtained in section 3 above was heat-treated at 100° C. for 1 hour using a hot plate, and the color difference (ΔEab) between before and after the heating was determined by using a […] MCPD-1000 (trade name, manufactured by Otsuka Electronics Co., Ltd.). The heat resistance was evaluated according to the following criteria. A smaller AEab value indicates better heat resistance.
as §1, §2, §3

[5] = Storage stability of colored resist solution (precipitation after one month at room temperature); parameters: key: A: No precipitation was observed; B: Slight precipitation was observed; C: Precipitation was observed; conditions: negative-working colored resist solution, visual precipitation
Text: 9.4 g of the resist solution obtained in section 1 above and 0.35 g of the exemplary compound Ia-12 synthesized above (a compound represented by Formula (4): dipyrromethene complex compound) were mixed and dissolved, whereby a colored resist solution (a negative-working ultraviolet-sensitive colored curable composition) was obtained.
The colored resist solution was stored for one month at room temperature, and then degree of precipitation was visually observed. The storage stability was evaluated according to the following criteria.
A: No precipitation was observed
B: Slight precipitation was observed
C: Precipitation was observed

Row | SMILES | maximum absorption wavelength (λmax) [1] [nm] | molar absorption coefficient (ε) [1] | Abs value at 450 nm when normalized to Abs = 1.0 at λmax [1] | Light-fastness [2] | Transmittance at 450 nm [3] | Heat resistance [4] | Storage stability [5]
1 | CC1=C(C(=O)OC2C(C(C)(C)C)CC(C)CC2C(C)(C)C)C(NC(=O)c2ccc(F)c([N+](=O)[O-])c2)=[N+]2C1=Cc1c(C)c(C(=O)OC3C(C(C)(C)C)CC(C)CC3C(C)(C)C)c(NC(=O)c3ccc(F)c([N+](=O)[O-])c3)[n]1[Zn-]2[OH] (stereo not drawn) [IIa-25] | 555 | 126,900 | 0.0081 | A (ΔEab value was less than 6) | A (Transmittance at 450 nm was 90% or more) | A (ΔEab value was less than 6) | B
2 | CC1=C(C(=O)OC2C(C(C)(C)C)CC(C)CC2C(C)(C)C)C(NC(=O)c2cccc(C(F)(F)F)c2)=[N+]2C1=Cc1c(C)c(C(=O)OC3C(C(C)(C)C)CC(C)CC3C(C)(C)C)c(NC(=O)c3cccc(C(F)(F)F)c3)[n]1[Zn-]2[OH] (stereo not drawn) [IIa-6] | 552 | 106,300 | 0.0127 | A (ΔEab value was less than 6) | A (Transmittance at 450 nm was 90% or more) | A (ΔEab value was less than 6) | A
3 | CC1=C(C(=O)OC2C(C(C)(C)C)CC(C)CC2C(C)(C)C)C(NC(=O)c2ccc(F)c(F)c2)=[N+]2C1=Cc1c(C)c(C(=O)OC3C(C(C)(C)C)CC(C)CC3C(C)(C)C)c(NC(=O)c3ccc(F)c(F)c3)[n]1[Zn-]2[OH] (stereo not drawn) [IIa-13] | 550 | 121,300 | 0.0084 | A (ΔEab value was less than 6) | A (Transmittance at 450 nm was 90% or more) | A (ΔEab value was less than 6) | A
4 | CC1CC(C(C)(C)C)C(OC(=O)C2=C(c3ccccc3)C3=Cc4c(-c5ccccc5)c(C(=O)OC5C(C(C)(C)C)CC(C)CC5C(C)(C)C)c(NC(=O)c5cc(F)c(F)c(F)c5)[n]4[Zn-]([OH])[N+]3=C2NC(=O)c2cc(F)c(F)c(F)c2)C(C(C)(C)C)C1 (stereo not drawn) [IIb-32] | 559 | 91,400 | 0.0143 | A (ΔEab value was less than 6) | A (Transmittance at 450 nm was 90% or more) | A (ΔEab value was less than 6) | A
5 | CC1CC(C(C)(C)C)C(OC(=O)c2c(-c3ccccc3)c(C=C3N=C(NC(=O)C(C)(C)C)C(C#N)=C3c3ccccc3)[n]([Zn][OH])c2NC(=O)c2c(F)c(F)c(C(=O)O)c(F)c2F)C(C(C)(C)C)C1 (stereo not drawn) [Ib-69] | 557 | 99,200 | 0.0111 | A (ΔEab value was less than 6) | A (Transmittance at 450 nm was 90% or more) | A (ΔEab value was less than 6) | A
6 | CC1=C(C(=O)OC2C(C(C)(C)C)CC(C)CC2C(C)(C)C)C(NC(=O)c2ccc(C(F)(F)F)cc2)=[N+]2C1=Cc1c(C)c(C(=O)OC3C(C(C)(C)C)CC(C)CC3C(C)(C)C)c(NC(=O)c3ccc(C(F)(F)F)cc3)[n]1[Zn-]2[OH] (stereo not drawn) [IIa-7] | 554 | 111,800 | 0.0089 | A (ΔEab value was less than 6) | A (Transmittance at 450 nm was 90% or more) | A (ΔEab value was less than 6) | A
7 | CC1CC(C(C)(C)C)C(OC(=O)c2c(-c3ccccc3)c3[n](c2NC(=O)c2ccc(F)c(F)c2)[Zn-]([OH])[N+]2=C(NC(=O)C(C)Sc4cc(C(=O)O)cc(C(=O)O)c4)C(C#N)=C(c4ccccc4)C2=C3)C(C(C)(C)C)C1 (stereo not drawn) [Ib-35] | 562 | 80,500 | 0.0173 | A (ΔEab value was less than 6) | A (Transmittance at 450 nm was 90% or more) | A (ΔEab value was less than 6) | A
8 | CC1CC(C(C)(C)C)C(OC(=O)c2c(-c3ccccc3)c3[n](c2NC(=O)c2ccc(F)c(Br)c2)[Zn-]([OH])[N+]2=C(NC(=O)C(C)Sc4cc(C(=O)O)cc(C(=O)O)c4)C(C#N)=C(c4ccccc4)C2=C3)C(C(C)(C)C)C1 (stereo not drawn) [Ib-53] | 563 | 100,500 | 0.0082 | A (ΔEab value was less than 6) | A (Transmittance at 450 nm was 90% or more) | A (ΔEab value was less than 6) | A
9 | CC(=O)NC1=[N+]2C(=Cc3c(-c4ccccc4)c(C(=O)OC4C(C(C)(C)C)CC(C)CC4C(C)(C)C)c(NC(=O)c4cc(F)c(F)c(F)c4)[n]3[Zn-]2[OH])C(c2ccccc2)=C1C#N (stereo not drawn) [Ib-61] | 558 | 89,100 | 0.0101 | A (ΔEab value was less than 6) | A (Transmittance at 450 nm was 90% or more) | A (ΔEab value was less than 6) | A
10 | CC1CC(C(C)(C)C)C(OC(=O)c2c(-c3ccccc3)c3[n](c2NC(=O)c2cccc(F)c2C(=O)O)[Zn-]([OH])[N+]2=C(NC(=O)C(C)Sc4cc(C(=O)O)cc(C(=O)O)c4)C(C#N)=C(c4ccccc4)C2=C3)C(C(C)(C)C)C1 (stereo not drawn) [Ib-46] | 560 | 66,100 | 0.0186 | A (ΔEab value was less than 6) | A (Transmittance at 450 nm was 90% or more) | A (ΔEab value was less than 6) | B
11 | CC1CC(C(C)(C)C)C(OC(=O)c2c(-c3ccccc3)c3[n](c2NC(=O)c2cc(F)ccc2NS(C)(=O)=O)[Zn-]([OH])[N+]2=C(NC(=O)C(C)Sc4cc(C(=O)O)cc(C(=O)O)c4)C(C#N)=C(c4ccccc4)C2=C3)C(C(C)(C)C)C1 (stereo not drawn) [Ib-49] | 566 | 91,500 | 0.0116 | A (ΔEab value was less than 6) | A (Transmittance at 450 nm was 90% or more) | A (ΔEab value was less than 6) | B
12 | CC1CC(C(C)(C)C)C(OC(=O)C2=C(c3ccccc3)C3=Cc4c(-c5ccccc5)c(C(=O)OC5C(C(C)(C)C)CC(C)CC5C(C)(C)C)c(NC(=O)c5cc(C(F)(F)F)cc(C(F)(F)F)c5)[n]4[Zn-]([OH])[N+]3=C2NC(=O)c2cc(C(F)(F)F)cc(C(F)(F)F)c2)C(C(C)(C)C)C1 (stereo not drawn) [IIb-14] | 560 | 117,400 | 0.01 | A (ΔEab value was less than 6) | A (Transmittance at 450 nm was 90% or more) | A (ΔEab value was less than 6) | A
